Structures are written as SMILES.

In assay [1] the target is T1, Estrogen receptor (Ovis aries) (UniProt P49885+Q9TU15).
Assay [2] concerns the target T1, Estrogen receptor (Ovis aries). The source holds these as a separate data set.
Assay [3] shares this target. This is another data set of the same source.

With `C[C@]12CC[C@@H]3c4ccc(O)cc4CC[C@H]3[C@@H]1CC[C@@]2(O)CC1CO1` (stereo in doubt; 6a), the RAC app in assay [1] is 0.044; in assay [2] it was 12; in assay [3], 1.3.

With `C[C@]12CC[C@@H]3c4ccc(O)cc4CC[C@H]3[C@@H]1CC[C@@]2(O)C#CCCCCCCO`, the values for the RAC app in assay [1], in assay [2] and in assay [3] were 0.4, 6.5 and 3.4, respectively.

Regarding `C[C@]12CC[C@@H]3c4ccc(O)cc4CC[C@H]3[C@@H]1CC[C@@]2(O)CC1CO1` (stereo in doubt; 6b), the RAC app in assay [1] is less than 0.017; in assay [2], 3.9; in assay [3], 0.2.

Consider `C[C@]12CC[C@@H]3c4ccc(O)cc4CC[C@H]3[C@@H]1CC[C@@]2(O)C#CCCO`, for which the RAC app in assay [1] worked out at 0.07; in assay [2] it was 3.9; in assay [3], 1.

As for `C[C@]12CC[C@@H]3c4ccc(O)cc4CC[C@H]3[C@@H]1CC[C@@]2(O)CCCOC(=O)CBr`, the results for the RAC app in assay [1], in assay [2] and in assay [3] were 0.021, 0.94 and 0.21, respectively.

For the compound `C[C@]12CC[C@@H]3c4ccc(O)cc4CC[C@H]3[C@@H]1CC[C@@]2(O)CCCO`, the RAC app worked out at 0.024 in assay [1], 1.1 in assay [2] and 0.28 in assay [3].

Consider `C[C@]12CC[C@@H]3c4ccc(O)cc4CC[C@H]3[C@@H]1CC[C@@]2(O)C#CCCCCCCOC(=O)CBr`, for which the RAC app in assay [1] worked out at 0.24; in assay [2], 2.4; in assay [3], 1.5.

For the compound `C[C@]12CC[C@@H]3c4ccc(O)cc4CC[C@H]3[C@@H]1CC[C@@]2(O)C#CCCOC(=O)CBr`, the RAC app is 0.066 in assay [1], 2 in assay [2] and 0.79 in assay [3].
